Experimental data taken from US20250213592A1, “PHARMACEUTICAL COMPOSITION COMPRISING CURCUMIN AND GINSENOSIDE, AND FORMULATION THEREOF” (CORESTEMCHEMON INC., priority 2022, published 2025).

Legend:
SNU-C1 [1] = assay: Cell viability (Cell Counting Kit-8) of irradiated SNU-C1 cells; format: cell-based, human; details: SNU-C1, 10 Gy, 48 hours
Protocol: (§1) Human colon cancer cell lines (HCT116 and SNU-C1), a human dermal fibroblast cell line and a human keratinocyte cell line (HaCaT) were cultured in Dulbecco's modified eagles medium-high glucose (DMEM) containing 10% fetal bovine serum (FBS), 100 units/mL penicillin, and 100 μg/mL streptomycin. A Human umbilical vascular endothelial cell line (HUVEC) was cultured in a vascular cell basal medium (ATCC) containing Endothelial cell growth kit-VEGF (ATCC). All of the above cells were cultured in a 5% CO2 cell incubator at 37° C.
(§2) Cell viability test was performed using Cell Counting Kit-8. HCT116 and SNU-C1 cell lines, which are colon cancer cells, were seeded on 60 mm culture dishes and cultured, and then irradiated with 10 Gy of radiation. The cells were harvested, seeded on 96-well culture plates, and incubated, and then the cells were treated with butyric acid (BA), ginsenosides Rh1, Rh2, Ro, Rb1, and curcumin (CU) at concentrations of 5, 10, or 50 μM, respectively. After 48 hours, cell viability was analyzed using Cell Counting Kit-8 and a microplate reader.
(§3) In order to investigate the effects of curcumin (CU), butyric acid (BA), and ginsenoside on the decreased cell viability due to irradiation, HCT116 and SNU-C1 cells were treated with curcumin, butyric acid, ginsenoside Rh1, Rh2, Ro, or Rb1 at concentrations of 5, 10, and 50 μM, respectively, and the viability of each cell was measured (FIGS. 1 and 2).

HCT116 [2] = assay: Cell viability (Cell Counting Kit-8) of irradiated HCT116 cells; format: cell-based, human; details: HCT116, 10 Gy, 48 hours
Protocol: as §1, §2, §3

HCT116 [3] = assay: Cell mobility (transwell) of irradiated HCT116 cells; format: cell-based, human; details: HCT116, 10 Gy, 10 μM, 24 hours
Protocol: (§4) Cell mobility was measured using a 24 mm transwell with […]. After stabilizing the cells irradiated with 10 Gy of radiation for 24 hours, the cells were suspended in a medium and seeded in the upper chamber of the transwell, and the lower chamber was filled with a medium containing 10% fetal bovine serum (FBS) and 10 μM butyric acid (BA), ginsenosides Rh1, Rh2, Ro, Rb1, curcumin (CU), and sucralfate (SCF) either alone or in combination, and culturing was performed. After 24 hours of culture, the downside of the transwell was stained with crystal violet dye, and the stained cells were counted by observing them with an inverted microscope.
The experiment was conducted using the same manner as Experimental Example 3, except that the effective agents for treatment were a combination of curcumin, butyric acid, sucralfate, and ginsenoside.

HUVEC = assay: Vascular endothelial cell tube formation after irradiation; format: cell-based, human; details: irradiated HUVEC, 10 μM, alone or in combination
Protocol: After irradiating human umbilical endothelial cells (HUVEC) with 10 Gy of radiation, the cells were seeded on a matrigel-coated u-slide, and were treated with 10 μM of curcumin (CU), butyric acid (BA), sucralfate (SCF), ginsenosides Rh1, Rh2, Rb1, or Ro either alone or in combination.
It was investigated whether a treatment with curcumin (CU), butyric acid (BA), sucralfate (SCF), and ginsenoside Rh1 (Rh1) alone or in combination restored the function of HUVEC cells damaged by radiation.

[4] = system: human dermal fibroblasts (HDF); assay: Cell mobility (transwell) of irradiated human dermal fibroblasts; format: cell-based; details: 10 μM, alone or in combination
Protocol: as §4

SNU-C1 [5] = assay: Cell mobility (transwell) of irradiated SNU-C1 cells; format: cell-based, human; details: SNU-C1, 10 Gy, 10 μM, 24 hours
Protocol: as §4

skin of irradiated mice = details: cited from earlier work
[6] = system: radiation proctitis model mouse; assay: Radiation proctitis model mouse: pathological morphology of colon and rectal tissue (H&E); format: in vivo; details: 27 Gy, intrarectal, 14 days, vs irradiated group (IR)
Protocol: by administration of combination drug to proctitis model mouse C57BL/6 mice (5 weeks old, female) were irradiated with 27 Gy of radiation, and then divided into test groups as shown in Table 4 and FIG. 13. From the next day, samples prepared at concentrations as shown in Table 5 and FIG. 14 (formulated using the method of Example 1) were administered intrarectally at 2-3 day intervals for a total of 6 times (FIG. 16).
The efficacy of the treated samples was confirmed 14 days after the final radiation. In this case, except for the non-irradiated group (n=5), all test treatment groups were conducted with 7 mice per group. A flexible plastic tube was inserted into the rectum for administration, and a formulation containing approximately 50 μl of the compound was administered per mouse at a time.
In addition, pathological morphological analysis of the intestinal tissue was performed by observing the morphology of each treatment group through a microscope after performing H&E staining.
Specifically, the extracted organs were fixed in 10% formalin and paraffin blocks were created (STP120 Spin tissue Processor, Myr). Thereafter, sections were mounted on slides using a microtome (Finesse ME Microtome, Thermo Shandon), dried, deparaffinized and hydrated to create tissue slides. […]

[7] = system: intestinal epithelial cells; details: cited from earlier work
[8] = 5 μM or 10 μM, vs irradiated group

Compound: CC(C)=CCC[C@](C)(O)[C@H]1CC[C@]2(C)[C@@H]1[C@H](O)C[C@@H]1[C@@]3(C)CC[C@H](O[C@@H]4O[C@H](CO)[C@@H](O)[C@H](O)[C@H]4O)C(C)(C)[C@@H]3CC[C@]12C [Rh2, ginsenoside Rh2]
- cell viability compared to the irradiated group (SNU-C1 [1]; 50 μM): lower cell viabilities than the irradiated group
- cell viability compared to the irradiated group (HCT116 [2]; 50 μM): lower cell viabilities than the irradiated group
- cell mobility rate compared to the irradiated group (HCT116 [3]): highest cell mobility recovery rate

Compound: CC(C)=CCC[C@](C)(O)[C@H]1CC[C@]2(C)C1[C@H](O)C[C@@H]1[C@@]3(C)CC[C@H](O)C(C)(C)[C@@H]3[C@@H](O[C@@H]3O[C@H](CO)[C@@H](O)[C@H](O)[C@H]3O)C[C@]12C (stereo partly shown) [Rh1, ginsenoside Rh1]
- Tube length (%), average value (HUVEC): 15%
- Mobility rate (%), average value [4]: 99%

Compound: CC(C)=CCC[C@](C)(O[C@@H]1O[C@H](CO[C@@H]2O[C@H](CO)[C@@H](O)[C@H](O)[C@H]2O)[C@@H](O)[C@H](O)[C@H]1O)[C@H]1CC[C@]2(C)[C@@H]1[C@H](O)C[C@@H]1[C@@]3(C)CC[C@H](O[C@@H]4O[C@H](CO)[C@@H](O)[C@H](O)[C@H]4O[C@@H]4O[C@H](CO)[C@@H](O)[C@H](O)[C@H]4O)C(C)(C)[C@@H]3CC[C@]12C [Rb1, ginsenoside Rb1]
- cell mobility rate compared to the irradiated group (SNU-C1 [5]): significantly increased

Compound: COc1cc(/C=C/C(=O)CC(=O)/C=C/c2ccc(O)c(OC)c2)ccc1O [curcumin]
- cell viability decreased by irradiation (SNU-C1 [1]; [8]): significantly increased
- cell viability compared to the irradiated group (SNU-C1 [1]; 50 μM): lower cell viabilities than the irradiated group
- cell viability decreased by irradiation (HCT116 [2]; [8]): significantly increased
- cell viability compared to the irradiated group (HCT116 [2]; 50 μM): lower cell viabilities than the irradiated group
- Tube length (%), average value (HUVEC): 15%
- cell mobility rate compared to the irradiated group (HCT116 [3]): double increase
- cell mobility rate compared to the irradiated group (SNU-C1 [5]): significantly increased
- skin damage (skin of irradiated mice; irradiated mice): restoring skin damage
- expression of inflammatory cytokines and fibrogenic cytokines (skin of irradiated mice; skin of irradiated mice): reducing the expression
- Mobility rate (%), average value [4]: 130%

Compound: CCCC(=O)O [butyric acid, Butyric acid]
- Tube length (%), average value (HUVEC): 14%
- cell mobility rate compared to the irradiated group (HCT116 [3]): double increase
- Mobility rate (%), average value [4]: 76%

Compound: CC1(C)CC[C@]2(C(=O)O[C@@H]3O[C@H](CO)[C@@H](O)[C@H](O)[C@H]3O)CC[C@]3(C)C(=CC[C@@H]4[C@@]5(C)CC[C@H](O[C@@H]6O[C@H](C(=O)O)[C@@H](O)[C@H](O)[C@H]6O[C@@H]6O[C@H](CO)[C@@H](O)[C@H](O)[C@H]6O)C(C)(C)[C@@H]5CC[C@]43C)[C@@H]2C1 [Ro, ginsenoside Ro]
- cell viability compared to the irradiated group (SNU-C1 [1]; 5 μM): lower cell viabilities than the irradiated group
- cell viability compared to the irradiated group (HCT116 [2]; 5 μM): lower cell viabilities than the irradiated group

Compound: Sucralfate [reference compound]
- epithelium loss and crypt damage induced by irradiation [6]: recovered in all sample treatment groups except the sucralfate treatment group
- Tube length (%), average value (HUVEC): 14%
- Mobility rate (%), average value [4]: 91%

Compound: CC(C)=CCC[C@](C)(O[C@@H]1O[C@H](CO)[C@@H](O)[C@H](O)[C@H]1O)[C@H]1CC[C@]2(C)[C@@H]1[C@H](O)C[C@@H]1[C@@]3(C)CC[C@H](O[C@@H]4O[C@H](CO)[C@@H](O)[C@H](O)[C@H]4O[C@@H]4O[C@H](CO)[C@@H](O)[C@H](O)[C@H]4O)C(C)(C)[C@@H]3CC[C@]12C [ginsenoside Rd]
- apoptosis induced by irradiation [7]: inhibit apoptosis
